Results as given in PMC7048932, “Examining sterically demanding lysine analogs for histone lysine methyltransferase catalysis” (Scientific Reports, 2020).

Molecular target: T1, G9a (Homo sapiens, UniProt Q96KQ7)
T1 construct: His6 (N); made in house; host or cells: E. coli BL21 (DE3)pLysS-rosetta
T1 sequence (Q96KQ7 1-1210): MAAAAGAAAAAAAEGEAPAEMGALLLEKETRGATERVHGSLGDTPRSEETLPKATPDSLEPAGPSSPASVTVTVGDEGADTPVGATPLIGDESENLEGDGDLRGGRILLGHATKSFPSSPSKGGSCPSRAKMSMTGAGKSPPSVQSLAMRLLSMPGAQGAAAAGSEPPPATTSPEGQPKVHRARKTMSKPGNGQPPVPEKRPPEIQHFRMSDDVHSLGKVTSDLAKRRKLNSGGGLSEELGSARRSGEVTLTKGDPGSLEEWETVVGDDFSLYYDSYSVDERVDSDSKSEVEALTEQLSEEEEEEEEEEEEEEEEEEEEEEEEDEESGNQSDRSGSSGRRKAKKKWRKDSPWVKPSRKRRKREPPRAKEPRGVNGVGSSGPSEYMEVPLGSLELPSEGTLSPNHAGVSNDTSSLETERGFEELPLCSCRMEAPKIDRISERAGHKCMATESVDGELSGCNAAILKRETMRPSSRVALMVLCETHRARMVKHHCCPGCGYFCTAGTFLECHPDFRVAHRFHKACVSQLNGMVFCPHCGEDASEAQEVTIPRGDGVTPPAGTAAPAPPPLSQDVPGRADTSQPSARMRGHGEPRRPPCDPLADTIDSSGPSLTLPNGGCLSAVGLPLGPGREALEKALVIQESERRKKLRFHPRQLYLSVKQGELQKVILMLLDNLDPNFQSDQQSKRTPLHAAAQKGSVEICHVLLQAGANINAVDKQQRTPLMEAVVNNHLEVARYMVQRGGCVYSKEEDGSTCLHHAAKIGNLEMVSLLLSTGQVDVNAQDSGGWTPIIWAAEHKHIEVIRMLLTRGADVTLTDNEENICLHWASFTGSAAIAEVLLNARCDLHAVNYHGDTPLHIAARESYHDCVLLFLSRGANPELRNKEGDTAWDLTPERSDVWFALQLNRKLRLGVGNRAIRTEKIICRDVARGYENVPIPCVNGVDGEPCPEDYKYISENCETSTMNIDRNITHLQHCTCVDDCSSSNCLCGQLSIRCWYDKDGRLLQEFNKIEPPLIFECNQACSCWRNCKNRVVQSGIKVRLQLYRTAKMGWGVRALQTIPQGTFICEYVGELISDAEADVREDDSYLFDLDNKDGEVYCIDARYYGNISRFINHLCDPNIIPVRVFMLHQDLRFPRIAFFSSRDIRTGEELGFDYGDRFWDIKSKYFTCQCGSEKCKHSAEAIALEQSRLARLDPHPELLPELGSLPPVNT
Experiment: MALDI-TOF MS methylation assay of H3K9 peptides with G9a
Format: biochemical
Settings: peptide 100 µM, G9a 2 µM, SAM 500 µM, 1 h, 37 °C
Method: MALDI-MS methyltransferases activity experiments were performed using a Bruker instrument in the reflectron positive mode. For regular methyltransferase standard conditions experiment which carried out in 30 µL total volume, the mixture contains peptide (100 µM), SAM (200 µM), SETD8 or SETD7 (2 µM), in assay buffer 50 mM Tris at optimal pH 8.0. In case of G9a and GLP, similar conditions were used, except (500 µM) of SAM was added to the reaction mixture. Samples were incubated in an Eppendorf vial 1.5 mL using thermomixer for 1 h at 37 °C. A 5 µL aliquot of the solution was mixed with 5 µL of MeOH, after which 5 µL of this mixture was mixed with 5 µL of α-cyano-4-hydroxycinamic acid matrix (CHCA, 5 mg/mL in 125:125 µL acetonitrile/water). The spots were placed on a stainless steel MALDI plate (MS 96 target ground steel BC of Bruker, Germany). The mass corresponding to one monomethylation observed as +14 Da, dimethylation observed as +28 Da and trimethylation observed as +42 Da. The enzymatic activity was determined by taking the peak areas of each methylation state, including all isotopes and adducts, and was annotated using FlexAnalysis software (Bruker Daltonics, Germany). […] Methylated peptide substrates were repeated five times and the unmethylated substrates were triplicated. Sequences of the examined peptides are given in (Supplementary Table 1).

ARTKQTAR(Kba9)STGGKA [H3Kba9] was tested, and the “G9a-catalyzed methylation, result in words” value was “traces detected” and the “G9a-catalyzed methylation, result in words” value (listed as H3K ba9) was “trace of monomethylation”.
